{
  "source": "patent US20130053434A1",
  "about": "“IRREVERSIBLE INHIBITORS USEFUL FOR THE TREATMENT OF KINASE-RELATED PATHOLOGIES” (CENTRE NATIONAL DE LA RECHERCHE SCIENTIFIQUE, priority 2009, published 2013)",
  "key": {"VEGFR2": {"molecular_target": "VEGFR2 (Homo sapiens, UniProt P35968)", "sequence (P35968 20-1356, species assumed)": "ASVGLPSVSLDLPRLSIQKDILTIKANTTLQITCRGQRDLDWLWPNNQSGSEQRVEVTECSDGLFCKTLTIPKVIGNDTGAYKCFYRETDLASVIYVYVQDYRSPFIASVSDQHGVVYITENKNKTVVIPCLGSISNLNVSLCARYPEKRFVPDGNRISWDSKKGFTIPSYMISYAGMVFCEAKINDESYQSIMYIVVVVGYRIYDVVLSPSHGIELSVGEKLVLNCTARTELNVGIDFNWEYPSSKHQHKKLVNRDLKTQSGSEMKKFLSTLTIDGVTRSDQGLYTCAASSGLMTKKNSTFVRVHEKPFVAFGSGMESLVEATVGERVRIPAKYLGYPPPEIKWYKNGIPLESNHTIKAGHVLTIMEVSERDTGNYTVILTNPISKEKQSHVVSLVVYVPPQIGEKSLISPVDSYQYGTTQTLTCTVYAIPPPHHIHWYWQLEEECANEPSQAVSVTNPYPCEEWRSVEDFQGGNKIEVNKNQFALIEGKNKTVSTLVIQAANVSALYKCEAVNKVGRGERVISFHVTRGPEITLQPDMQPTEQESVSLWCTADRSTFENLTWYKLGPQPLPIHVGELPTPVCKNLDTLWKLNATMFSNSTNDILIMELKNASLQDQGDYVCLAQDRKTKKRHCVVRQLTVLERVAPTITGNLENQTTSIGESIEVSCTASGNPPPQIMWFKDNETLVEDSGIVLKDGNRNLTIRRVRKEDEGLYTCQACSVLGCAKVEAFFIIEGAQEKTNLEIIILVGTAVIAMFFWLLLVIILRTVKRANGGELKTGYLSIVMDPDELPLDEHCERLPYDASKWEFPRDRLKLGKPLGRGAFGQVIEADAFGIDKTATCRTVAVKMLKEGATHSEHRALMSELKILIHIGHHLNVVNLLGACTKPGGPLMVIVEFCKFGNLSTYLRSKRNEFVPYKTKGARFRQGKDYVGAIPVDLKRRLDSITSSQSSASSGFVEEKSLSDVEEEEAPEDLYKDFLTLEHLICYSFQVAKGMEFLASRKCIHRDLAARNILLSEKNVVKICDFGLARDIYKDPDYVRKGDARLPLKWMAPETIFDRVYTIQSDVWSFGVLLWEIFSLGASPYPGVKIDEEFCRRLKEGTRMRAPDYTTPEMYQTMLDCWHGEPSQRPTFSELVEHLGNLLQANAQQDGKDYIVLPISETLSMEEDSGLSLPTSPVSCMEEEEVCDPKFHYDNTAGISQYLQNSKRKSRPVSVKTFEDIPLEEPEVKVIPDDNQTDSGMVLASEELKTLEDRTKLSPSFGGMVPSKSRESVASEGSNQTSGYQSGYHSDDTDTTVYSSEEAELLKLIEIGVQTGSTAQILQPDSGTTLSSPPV", "assay": "cellular inhibition of VEGFR2", "type": "cell-based", "settings": "triplicate", "experimental": "FIG. 21. […] Assays were performed in triplicate.\nTo gage the undiscriminate reactivity of these enone resorcylic acids with thiols, fluoroenone 2 and the parent analogue lacking the fluoride were treated with one equivalent of DTT (2 mM) as a prototypical thiol nucleophile in PBS (pH 7.4) containing 1% DMSO. […] With fluoroenone 1 and 2 in hand, we tested their efficacy against VEGF-R2 which was frequently found to be the most inhibited kinase in our profile of cis-enone resorcylic acid library (Dakas, P. Y., et al. (2007) Angew. Chem. Int. Ed. Engl. 46, 6899-902; Jogireddy, R., et al. (2009) Chem. Eur. J. 15, 11498-506) and KIT which represents a less inhibited kinase. […] Their cellular activity against VEGF-R2 did parallel the biochemical activity. […] During the course of our investigation, a similar modification was reported by researchers from Esai (Du, H., et al. (2009) Bioorg. Med. Chem. Lett. 19, 6196-9) however, their medicinal chemistry efforts focused the inhibition of inflammation related pathways (MEKs and their down-stream regulatory effect on cytokines) (Du, H., et al. (2009) Bioorg. Med. Chem. Lett. 19, 6196-9; Goto, M., et al. (2009) J. Pharmacol. Exp. Ther. 331, 485-95). […]"}, "[1]": {"assay": "inactivation by thiols such as DTT or GST", "type": "in vitro ADME"}, "plasma half-life": {"assay": "plasma half-life", "type": "in vitro ADME"}, "ERK2": {"molecular_target": "ERK2 (Homo sapiens, UniProt P28482)", "sequence (P28482 whole entry, species assumed)": "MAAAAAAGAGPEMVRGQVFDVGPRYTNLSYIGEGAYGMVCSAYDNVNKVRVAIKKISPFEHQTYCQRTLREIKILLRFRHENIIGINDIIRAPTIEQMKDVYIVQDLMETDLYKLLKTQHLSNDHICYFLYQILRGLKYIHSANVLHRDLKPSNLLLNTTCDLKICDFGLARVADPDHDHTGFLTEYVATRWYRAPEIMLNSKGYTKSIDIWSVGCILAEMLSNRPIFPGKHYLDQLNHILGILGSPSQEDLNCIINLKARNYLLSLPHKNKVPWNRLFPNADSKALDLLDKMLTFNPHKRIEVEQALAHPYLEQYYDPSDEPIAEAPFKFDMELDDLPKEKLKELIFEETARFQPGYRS", "settings": "Nakajima and Miyake; cited from earlier work"}, "MEK": {"molecular_target": "MEK (Homo sapiens, UniProt Q02750)", "sequence (Q02750 whole entry)": "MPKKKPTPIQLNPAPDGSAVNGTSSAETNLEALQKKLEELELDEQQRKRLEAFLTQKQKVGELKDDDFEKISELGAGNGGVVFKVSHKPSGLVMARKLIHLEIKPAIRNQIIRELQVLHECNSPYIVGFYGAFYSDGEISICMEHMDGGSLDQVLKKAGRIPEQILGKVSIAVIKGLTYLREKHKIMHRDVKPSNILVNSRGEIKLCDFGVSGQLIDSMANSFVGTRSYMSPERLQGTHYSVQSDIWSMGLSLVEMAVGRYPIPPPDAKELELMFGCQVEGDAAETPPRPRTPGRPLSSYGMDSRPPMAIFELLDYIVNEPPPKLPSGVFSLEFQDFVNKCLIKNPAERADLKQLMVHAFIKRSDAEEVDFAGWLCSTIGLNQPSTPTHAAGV", "settings": "reported values; read-out: MEK inhibition; cited from earlier work"}, "[2]": {"settings": "in vivo; cited from earlier work"}},
  "data": [
    {"smiles": "COc1cc(O)c2c(c1)/C=C/C[C@H](O)[C@H](O)C(=O)/C=C\\C[C@H](C)OC2=O", "note": "[LL-Z1640-2]", "values": [
      {"measurement": "IC50", "setting": "VEGFR2", "result": 6.5, "unit": "nM"},
      {"measurement": "inactivation by thiols", "setting": "[1]", "result": "inactivated by thiols such as DTT or GST"},
      {"measurement": "plasma half-life", "setting": "plasma half-life", "result": "short plasma half-life"},
      {"measurement": "difference in activity between LL-Z1640-2 and L-783277 in inhibition of ERK2", "setting": "ERK2", "result": 50, "unit": "fold"},
      {"measurement": "IC50", "setting": "MEK", "result": 411, "unit": "nM"},
      {"measurement": "efficacy in animal models", "setting": "[2]", "result": "effective in animal models"}
    ]}
  ]
}
